Measurements from US6660734B1, “Oxazinones having antibacterial activity” (Simon Fraser University, priority 1997, dated 2003).

Tests used:
[1] = test system: glutamate-aspartate transaminase; conditions: according to Khomutov; cited from earlier work
tuberculosis bacilli = conditions: according to Khomutov; cited from earlier work
Micrococcus luteus = experiment: Filter disc bioassay on agar plates seeded with Micrococcus luteus; format: cell-based; conditions: for ZONE SIZE: M. luteus, overnight 37° C.
Method: Samples were applied to filter discs in the amounts indicated. The discs were applied to agar plates seeded with Micrococcus luteus, and the plates were incubated overnight at 37° C. The results are illustrated in FIG. 5 and summarized in the following Table 1: Samples were assayed as in Example 3, with the results summarized in the following Table 2: […]

NC1CCONC1=O (racemic) [cyclocanaline, 4-amino-tetrahydro-1,2-oxazin-3-one]
inhibition of glutamate-aspartate transaminase [1]: known to lnhibit glutamate-aspartate transaminase
activity against tuberculosis bacilli (tuberculosis bacilli): exhibits activity against tuberculosis bacilli

O=C(O)CN1OC=C(O)CC1=O [Example 1, 2-Carboxymethyl-5-hydroxy-1,2-oxazin-3-one]
antibacterial activity (Micrococcus luteus; in words, from Tables 1 and 2): weak antibacterial activity
antibacterial activity, times less than that of penicillin (Micrococcus luteus; relative to penicillin, from Tables 1 and 2): at least 1000 times

CC(CN1OC=C(O)CC1=O)C(=O)O (stereo not shown) [Example 2, 2-[2-Carboxypropyl]-5-hydroxy-1,2-oxazin-3-one]
activity, times the activity of the carboxymethyl product (Micrococcus luteus; relative to product of Example 1, from Tables 1 and 2): approximately 50 times

CC1=C(C(=O)O)N2C(=O)[C@@H](NC(=O)Cc3ccccc3)[C@H]2SC1 [desacetoxycephalosporin G]
ZONE SIZE (Micrococcus luteus; Table 2, 2.5 micrograms on filter disc): 2.5 cm

CC1(C)S[C@@H]2[C@H](NC(=O)Cc3ccccc3)C(=O)N2[C@H]1C(=O)O [penicillin G]
ZONE SIZE (Micrococcus luteus; Table 1, 0.1 micrograms on filter disc): 1.6 cm
